In patent publication US9765092B2, “Tricyclic piperidine compounds” (ACTELION PHARMACEUTICALS LTD, priority 2013, dated 2017) one finds IC50 data, which are given here for 21 compounds.

Molecules are shown by their SMILES.

human TPH1, sequence (P17752 whole entry): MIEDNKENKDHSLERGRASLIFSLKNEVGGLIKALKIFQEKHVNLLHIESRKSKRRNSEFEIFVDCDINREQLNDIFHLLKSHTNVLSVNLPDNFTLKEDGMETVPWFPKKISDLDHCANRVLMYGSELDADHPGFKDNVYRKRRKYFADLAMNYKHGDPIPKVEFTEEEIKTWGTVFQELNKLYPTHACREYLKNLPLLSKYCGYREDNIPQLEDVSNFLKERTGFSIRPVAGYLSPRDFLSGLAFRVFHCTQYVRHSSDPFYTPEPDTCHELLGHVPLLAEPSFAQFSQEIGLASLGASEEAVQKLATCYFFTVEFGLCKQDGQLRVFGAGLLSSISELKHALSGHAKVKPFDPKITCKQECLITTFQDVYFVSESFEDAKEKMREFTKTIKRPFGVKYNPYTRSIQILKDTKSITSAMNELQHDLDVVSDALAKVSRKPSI

One assay concerns the target human TPH1 (Homo sapiens (Human), UniProt P17752). Kind of assay: Biochemical in vitro assay using fluorescence readout (TPH1 inhibition). The conditions noted are these: full length human TPH1, 40 μM L-tryptophan, 15° C., 60 minutes, fluorescence at 540 nm; mean if determined several times. From the text: Biochemical In Vitro Assay Using Fluorescence Readout
To generate the enzyme, full length human TPH1 is cloned into the plasmid pET20b(+) (Novagen) and expressed in E. coli. The bacterial cells are ruptured by sonication on ice and the lysate is cleared by centrifugation. The resulting protein in the pellet is re-extracted and TPH1 is purified from the obtained lysate by affinity chromatography using a pterin cosubstrate analog immobilized to the resin of the column. The protein is further purified by size exclusion chromatography to remove protein aggregates. The activity of TPH1 is determined by using a fluorescence assay. The enzyme activity assay is carried out at 15° C. with atmosphere oxygen for the duration of 60 minutes in a volume of 64 μl. The reaction is carried out in a 0.1 M Tris-HCl buffer, adjusted to pH 7.6, containing 1 mM DTT, 0.2 mg/mL catalase, 100 μM (±)-6-methyl-5,6,7,8-tetrahydropterine dihydrochloride, 40 μM L-tryptophan, and 40-80 nM of TPH1. The reaction is started by bringing together L-tryptophan with all the other reaction substituents and stopped by quenching with perchloric acid (HClO4). The amount of 5-hydroxy-L-tryptophan produced during the enzymatic reaction is determined by fluorescence readout. Fluorescence, as determined at 540 nm when excited at 300 nm wavelength, increases proportionally to the 5-hydroxy-L-tryptophan formed. Compounds are prepared as 10 mM stock solution in DMSO, then diluted in 384-well plates using DMSO followed by a transfer of the dilutions into the assay plate. Fluorescence is measured for each well and the fluorescence at 540 nm wavelength is compared to the fluorescence of the vehicle in place of compound. Inhibitory activities of example compounds with respect to the TPH1 protein are determined by calculating the IC50 value (the concentration of compound needed to inhibit 50% of the enzyme activity). The calculated IC50 values may fluctuate depending on the daily biochemical assay performance. Fluctuations of this kind are known to those skilled in the art.
As to `COC(=O)CCS(=O)(=O)c1ccc(OCC(=O)N2CCc3nc4sc(C)nn4c3C2c2ccc(Cl)cc2F)c(Cl)n1` (stereo not drawn) [Example 1.4.11, Methyl 3-((6-chloro-5-(2-(5-(4-chloro-2-fluorophenyl)-2-methyl-7,8-dihydro-[1,3,4]thiadiazolo[2′,3′:2,3]imidazo[4,5-c]pyridin-6(5H)-yl)-2-oxoethoxy)pyridin-2-yl)sulfonyl)propanoate], 57 nM corresponded to half-maximal inhibition (IC50). In other words, the double-digit nanomolar range.
The same measure, in the same setting: the same measure for `Cc1nn2c3c(nc2s1)CCN(C(=O)COc1ccc(N2CCOCC2)nc1Cl)C3c1cc(C(=O)N(C)C)cs1` (stereo not drawn) [Example 1.9.1, 5-(6-(2-((2-chloro-6-morpholinopyridin-3-yl)oxy)acetyl)-2-methyl-5,6,7,8-tetrahydro-[1,3,4]thiadiazolo[2′,3′:2,3]imidazo[4,5-c]pyridin-5-yl)-N,N-dimethyl-thiophene-3-carboxamide]: 5 nM.
As for `Cc1nn2c3c(nc2s1)CCN(C(=O)COc1ccc(N2CCOCC2)nc1Cl)C3c1nc(C(=O)N(C)C)co1` (stereo not drawn) [Example 1.43.1, 2-(6-(2-((2-Chloro-6-morpholinopyridin-3-yl)oxy)acetyl)-2-methyl-5,6,7,8-tetrahydro-[1,3,4]thiadiazolo[2′,3′:2,3]imidazo[4,5-c]pyridin-5-yl)-N,N-dimethyloxazole-4-carboxamide], it took 26 nM to reach half-maximal inhibition (IC50).
As to `COCCN(C)c1ccc(OCC(=O)N2CCc3nc4sc(C)nn4c3C2c2ccc(Cl)cc2F)c(Cl)n1` (stereo not drawn) [Example 1.4.14, 1-(5-(4-Chloro-2-fluorophenyl)-2-methyl-7,8-dihydro-[1,3,4]thiadiazolo[2′,3′:2,3]imidazo[4,5-c]pyridin-6(5H)-yl)-2-((2-chloro-6-((2-methoxyethyl)(methyl)-amino)pyridin-3-yl)oxy)ethanone], half-maximal inhibition (IC50) required 3 nM.
Take `Cc1nn2c3c(nc2s1)CCN(C(=O)COc1ccc(NS(C)(=O)=O)nc1Cl)C3c1ccc(OCCO)cc1F` (stereo not drawn) [Example 1.84.2, N-(6-Chloro-5-(2-(5-(2-fluoro-4-(2-hydroxyethoxy)phenyl)-2-methyl-7,8-dihydro-[1,3,4]thiadiazolo[2′,3′:2,3]imidazo[4,5-c]pyridin-6(5H)-yl)-2-oxoethoxy)pyridin-2-yl)methanesulfonamide]: the midpoint of inhibition, the IC50, lay at 16 nM.

Still in this assay, the particulars now being: human TPH1, fluorescence readout.
For the compound `CCc1nc(NS(C)(=O)=O)ccc1OCC(=O)N1CCc2nc3sc(CF)nn3c2C1c1ccc(Cl)cc1F` (stereo not drawn) [Example 7.1.2, N-(5-(2-(5-(4-chloro-2-fluorophenyl)-2-(fluoromethyl)-7,8-dihydro-[1,3,4]thiadiazolo[2′,3′:2,3]imidazo[4,5-c]pyridin-6(5H)-yl)-2-oxoethoxy)-6-ethylpyridin-2-yl)methanesulfonamide], the IC50 (usually the concentration at which inhibition is half-maximal) was 8 nM.
As to `Cc1nn2c3c(nc2s1)CCN(C(=O)COc1ccc(N(C)CC(F)(F)F)nc1Cl)C3c1ccc(Cl)cc1F` (stereo not drawn) [Example 1.4.38, 1-(5-(4-chloro-2-fluorophenyl)-2-methyl-7,8-dihydro-[1,3,4]thiadiazolo[2′,3′:2,3]imidazo[4,5-c]pyridin-6(5H)-yl)-2-((2-chloro-6-(methyl(2,2,2-trifluoroethyl)amino)pyridin-3-yl)oxy)ethanone], the IC50 is 3 nM.
As for `COC(=O)c1csc(C2c3c(nc4sc(C)nn34)CCN2C(=O)COc2ccc(N3CCOCC3)nc2Cl)c1` (stereo not drawn) [Example 1.21.1, Methyl 5-(6-(2-((2-chloro-6-morpholinopyridin-3-yl)oxy)acetyl)-2-methyl-5,6,7,8-tetrahydro-[1,3,4]thiadiazolo[2′,3′:2,3]imidazo[4,5-c]pyridin-5-yl)thiophene-3-carboxylate], the IC50 was 5 nM.
The same measure, in the same setting: to `Cc1nn2c3c(nc2s1)CCN(C(=O)COc1ccnc2c(F)ccc(F)c12)C3c1ccc(Cl)cc1F` (stereo not drawn) [Example 1.4.65, 1-(5-(4-chloro-2-fluorophenyl)-2-methyl-7,8-dihydro-[1,3,4]thiadiazolo[2′,3′:2,3]imidazo[4,5-c]pyridin-6(5H)-yl)-2-((5,8-difluoroquinolin-4-yl)oxy)ethan-1-one] belongs 31 nM; to `Cc1ccc(C2c3c(nc4sccn34)CCN2C(=O)COc2ccc(Cl)cc2C)c(F)c1` (stereo not drawn) [Example 6.10.1, 2-(4-chloro-2-methylphenoxy)-1-(5-(2-fluoro-4-methyl-phenyl)-7,8-dihydrothiazolo[2′,3′:2,3]imidazo[4,5-c]-pyridin-6(5H)-yl)ethanone], 5 nM; to `Cc1nn2c3c(nc2s1)CCN(C(=O)COc1ccc(CN2CCOCC2)nc1Cl)C3c1ccc(Cl)cc1F` (stereo not drawn) [Example 1.4.1, 1-(5-(4-chloro-2-fluorophenyl)-2-methyl-7,8-dihydro-[1,3,4]thiadiazolo[2′,3′:2,3]imidazo[4,5-c]pyridin-6(5H)-yl)-2-((2-chloro-6-(morpholinomethyl)pyridin-3-yl)oxy)ethanone], 9 nM.
`CNC(=O)c1ccc(OCC(=O)N2CCc3nc4sc(C)nn4c3C2c2sc(C(=O)N(C)C)cc2F)c(Cl)n1` (stereo not drawn) [Example 1.24.10, 6-chloro-5-(2-(5-(5-(dimethylcarbamoyl)-3-fluoro-thiophen-2-yl)-2-methyl-7,8-dihydro-[1,3,4]thiadiazolo[2′,3′:2,3]imidazo[4,5-c]pyridin-6(5H)-yl)-2-oxoethoxy)-N-methylpicolinamide] displayed an IC50 of 20 nM.
On the same count and under the same terms, to `Cc1nn2c3c(nc2s1)CCN(C(=O)COc1ccc(S(=O)(=O)N(C)C)nc1Cl)C3c1ccc(Cl)cc1F` (stereo not drawn) [Example 1.4.61, 6-chloro-5-(2-(5-(4-chloro-2-fluorophenyl)-2-methyl-7,8-dihydro-[1,3,4]thiadiazolo[2′,3′:2,3]imidazo[4,5-c]pyridin-6(5H)-yl)-2-oxoethoxy)-N,N-dimethylpyridine-2-sulfonamide] belongs 37 nM; to `Cc1nc(C)c(C2c3c(nc4sc(C)nn34)CCN2C(=O)COc2ccc(-c3ncco3)nc2Cl)s1` (stereo not drawn) [Example 1.68.3, 2-((2-chloro-6-(oxazol-2-yl)pyridin-3-yl)oxy)-1-(5-(2,4-dimethylthiazol-5-yl)-2-methyl-7,8-dihydro-[1,3,4]thiadiazolo[2′,3′:2,3]imidazo[4,5-c]pyridin-6(5H)-yl)ethanone], 9 nM; to `Cc1ncc(OCC(=O)N2CCc3nc4sc(C)nn4c3C2c2ccc(Cl)cc2F)c(C)n1` (stereo not drawn) [Example 1.4.45, 1-(5-(4-chloro-2-fluorophenyl)-2-methyl-7,8-dihydro-[1,3,4]thiadiazolo[2′,3′:2,3]imidazo[4,5-c]pyridin-6(5H)-yl)-2-((2,4-dimethylpyrimidin-5-yl)oxy)ethanone], 98 nM.
The compound `CCN(CC)C(=O)c1ccc(OCC(=O)N2CCc3nc4sc(C)nn4c3[C@@H]2c2sccc2F)c(Cl)n1` [Example 1.23.14, (R)-6-chloro-N,N-diethyl-5-(2-(5-(3-fluorothiophen-2-yl)-2-methyl-7,8-dihydro-[1,3,4]thiadiazolo[2′,3′:2,3]imidazo[4,5-c]pyridin-6(5H)-yl)-2-oxoethoxy)picolinamide] had an IC50 of 19 nM.
In the case of `Cc1ncc(OCC(=O)N2CCc3nc4sc(C)nn4c3C2c2ccc(C3CC3)cc2F)c(C)n1` (stereo not drawn) [Example 1.6.27, 1-(5-(4-cyclopropyl-2-fluorophenyl)-2-methyl-7,8-dihydro-[1,3,4]thiadiazolo[2′,3′:2,3]imidazo[4,5-c]pyridin-6(5H)-yl)-2-((2,4-dimethylpyrimidin-5-yl)oxy)ethanone], the IC50 was found to be 161 nM.
`CN(C)C(=O)c1ccc(OCC(=O)N2CCc3nc4sccn4c3C2c2sccc2F)c(Cl)n1` (stereo not drawn) [Example 6.8.2, 6-chloro-5-(2-(5-(3-fluorothiophen-2-yl)-7,8-dihydro-thiazolo[2′,3′:2,3]imidazo[4,5-c]pyridin-6(5H)-yl)-2-oxoethoxy)-N,N-dimethylpicolinamide] returned an IC50 of 5 nM. Compared with the last compound, the IC50 is about 32-fold lower.
`Cc1nn2c3c(nc2s1)CCN(C(=O)COc1ccc(NS(C)(=O)=O)nc1Cl)C3c1ccc(C)c(F)c1F` (stereo not drawn) [Example 1.61.2, N-(6-chloro-5-(2-(5-(2,3-difluoro-4-methylphenyl)-2-methyl-7,8-dihydro-[1,3,4]thiadiazolo[2′,3′:2,3]imidazo-[4,5-c]pyridin-6(5H)-yl)-2-oxoethoxy)pyridin-2-yl)methanesulfonamide] came in with an IC50 of 34 nM.
Still for that read-out and setting: the same measure for `Cc1nn2c3c(nc2s1)CCN(C(=O)COc1ccc(N2CCOCC2)nc1Cl)C3c1c(C)noc1C` (stereo not drawn) [Example 1.5.2, 2-((2-chloro-6-morpholinopyridin-3-yl)oxy)-1-(5-(3,5-dimethylisoxazol-4-yl)-2-methyl-7,8-dihydro-[1,3,4]thiadiazolo[2′,3′:2,3]imidazo[4,5-c]pyridin-6(5H)-yl)ethanone]: 9 nM.
As to `Cc1nn2c3c(nc2s1)CCN(C(=O)COc1ccc(C(=O)N(C)C)nc1Cl)C3c1sccc1F` (stereo not drawn) [Example 1.23.6, 6-chloro-5-(2-(5-(3-fluorothiophen-2-yl)-2-methyl-7,8-dihydro-[1,3,4]thiadiazolo[2′,3′:2,3]imidazo[4,5-c]pyridin-6(5H)-yl)-2-oxoethoxy)-N,N-dimethylpicolinamide], the IC50 was 5 nM.
